Measurements: PubChem BioAssay (NCI)
Values joined by “and” are separate entries in the source; they are usually repeats but may differ in a detail not shown here. Equal entries are not always repeated.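 Exposure lasted 48 hours, with cells grown in 96-well plates and compounds tested at five concentrations. Abbreviation: GI50, concentration required for 50% inhibition of growth. TGI denotes the concentration required for complete inhibition of growth.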 Numbered stars: 1 amine (or outer) side, 2 acyl side, 3 side chain; on linkers, the order of the positions; unused ones are H or OH. Bridge positions count the residues as written; N and C are the ends. Square brackets hold non-standard residues; d marks the D form. Peptide text beside a SMILES is read from it. I, II: the chains in the order shown. Actinocin(1to9) = Cc1c2oc3c(C)ccc(C(=O)[*:2])c3nc-2c(C(=O)[*:1])c(N)c1=O; NMeY = CN[CH](Cc1ccc(O)cc1)C(=O)O; Sar = CNCC(=O)O

What was measured:
Assay in all cases: NCI tumour cell line growth inhibition, 48 h
A498 renal = system: A498 renal
HCT-15 colon = system: HCT-15 colon
HL-60(TB) leukemia = system: HL-60(TB) leukemia
K-562 leukemia = system: K-562 leukemia
MOLT-4 leukemia = system: MOLT-4 leukemia
NCI-H522 lung = system: NCI-H522 lung
SK-MEL-2 melanoma = system: SK-MEL-2 melanoma
HS 578T breast = system: HS 578T breast
MDA-MB-231 breast = system: MDA-MB-231 breast

Row | SMILES | TGI (A498 renal) | TGI (HCT-15 colon) | TGI (HL-60(TB) leukemia) | TGI (K-562 leukemia) | TGI (MOLT-4 leukemia) | TGI (NCI-H522 lung) | TGI (SK-MEL-2 melanoma) | GI50 (A498 renal) | GI50 (HCT-15 colon) | GI50 (HL-60(TB) leukemia) | GI50 (HS 578T breast) | TGI (HS 578T breast) | GI50 (K-562 leukemia) | GI50 (MDA-MB-231 breast) | TGI (MDA-MB-231 breast) | GI50 (MOLT-4 leukemia) | GI50 (NCI-H522 lung) | GI50 (SK-MEL-2 melanoma)
1 | CC1c2[nH]c3ccccc3c2CCN1O (stereo not given) | > 100 µM | > 100 µM | > 100 µM | > 100 µM | > 100 µM | > 100 µM | > 100 µM |  |  |  |  |  |  |  |  |  |  | 
2 | COC(=O)N/N=C(\C)CC(=O)Nc1ccc(Cl)cc1 | > 100 µM |  | > 100 µM | > 100 µM | > 100 µM | > 100 µM | > 100 µM |  |  |  |  |  |  |  |  |  |  | 
3 | COc1ccc([C@@H]2OC(=O)C3C2C(=O)O[C@H]3c2ccc(OC)c(OC)c2)cc1OC (stereo not given in full) | > 100 µM | > 100 µM | > 100 µM | > 100 µM | > 100 µM | > 100 µM | > 100 µM |  |  |  |  |  |  |  |  |  |  | 
4 | COC(=O)N[C@H]1CCc2c(Cl)c(OC)c(OC)c(OC)c2-c2ccc(SC)c(=O)cc21 | < 0.01 µM | > 43.9 µM | < 0.0127 µM | > 43.9 µM | > 76.8 µM | 20.3 µM | > 70.3 µM | < 0.01 µM | < 10 nM | < 10 nM | < 10 nM | > 100 µM | < 10 nM | < 0.01 µM | 11.9 µM | < 10 nM | < 10 nM | 5890 nM
5 | CCC[CH2][Sn]1([CH2]CCC)[S]CC[N]1S(=O)(=O)c1ccc(C)cc1 |  | 2.93 µM | 2.73 µM | 1.97 µM | 4.04 µM | 0.508 µM | 2.73 µM |  | 1510 nM | 581 nM |  |  | 341 nM |  |  | 1140 nM | 217 nM | 1390 nM
6 | CC[PH+](CC)CC.[Cl][Au] |  | 3.17 µM | 0.278 µM | 1.19 µM | 2.69 µM | 0.31 µM | 2.95 µM |  | 1310 nM | < 46.9 nM |  |  | 319 nM |  |  | 682 nM | 122 nM | 1380 nM
7 | C=C1C(OC(C)=O)CC(OC(C)=O)C2(C)C(OC(C)=O)C(OC(C)=O)C3=C(C)C(OC(=O)/C=C/c4ccccc4)CC(C(OC(C)=O)C12)C3(C)C (stereo not given) | > 100 µM | > 100 µM | > 100 µM | > 100 µM | > 100 µM | > 100 µM | > 100 µM |  |  |  |  |  |  |  |  |  |  | 
8 | C=C1C[C@@H]2C[C@@H](C)CC(O)[C@]2(CCCN)C1O (stereo not given in full) | > 100 µM |  | > 100 µM | > 100 µM | > 100 µM | > 100 µM | > 100 µM |  |  |  |  |  |  |  |  |  |  | 
9 | CO[C@@]1(c2ccccc2)O[C@H]2OCCC2[C@H]1c1ccc(Cl)cc1 (stereo not given in full) | 53.3 µM | > 100 µM |  | > 100 µM | 92.7 µM | 67.9 µM | 80.9 µM |  |  |  |  |  |  |  |  |  |  | 
10 | COc1ccc2c(c1)CN1CCc3c(cc(OC)c(OC)c3OC)C1C2 (stereo not given) |  | > 100 µM | > 100 µM | > 100 µM | > 100 µM | > 100 µM | > 100 µM |  |  |  |  |  |  |  |  |  |  | 
11 | COc1cc(/C=N/N=C(\N)NO)c([N+](=O)[O-])cc1OC | > 100 µM | > 100 µM | 56 µM | > 100 µM | > 100 µM | 34.4 µM | > 100 µM |  |  |  |  |  |  |  |  |  |  | 
12 | CC1=CCCC2C(C=O)(C1)CC(C)C2(CO)CC/C(=C/CO)CO (stereo not given) | > 100 µM | > 100 µM |  | > 100 µM | > 100 µM | > 100 µM |  |  |  |  |  |  |  |  |  |  |  | 
13 | COc1c(N2CCN(CN3C(=O)C(=Nc4ccc(S(=O)(=O)Nc5ncccn5)cc4)c4cc(Cl)ccc43)C(C)C2)c(F)cc2c(=O)c(C(=O)O)cn(C3CC3)c12 (stereo not given) |  | > 50 µM | > 50 µM | > 50 µM | > 50 µM | > 50 µM | > 50 µM |  | 45400 nM | 16600 nM | 11900 nM | 42.8 µM | 21500 nM | 8.28 µM | 31 µM | 33300 nM | > 50000 nM | 26600 nM
14 | CC(=O)[O-].N.N.N.N.[Co+3].[O-][Cl+3]([O-])([O-])[O-].[OH3+] | > 100 µM | > 100 µM | > 100 µM | > 100 µM | > 100 µM | > 100 µM | > 100 µM | > 100 µM | > 100000 nM | > 100000 nM |  |  | > 100000 nM |  |  | > 100000 nM | 49500 nM | > 100000 nM
15 | COc1ccc(CC2C(=O)OC(C)C(NC(=O)c3c4nc5c(C(=O)NC6C(=O)NC(C(C)C)C(=O)N7CCCC7C(=O)N(C)CC(=O)N(C)C(Cc7ccc(OC)cc7)C(=O)OC6C)ccc(C)c5oc-4c(C)c(=O)c3N)C(=O)NC(C(C)C)C(=O)N3CCCC3C(=O)N(C)CC(=O)N2C)cc1 (stereo not given) (I: TVP[Sar][NMeY](Me) / II: TVP[Sar][NMeY](Me); ester I:1-I:C, II:1-II:C; linker I:N-II:N via Actinocin(1to9); configuration not given here) |  | > 1 µM | 0.0515 µM | < 0.01 µM |  | 0.018 µM |  |  |  | 1.54 nM | < 10 nM and 3.87 nM | < 0.01 µM and 0.0411 µM | < 10 nM and 3.9 nM |  |  | 1.52 nM | 2.64 nM | < 10 nM and 22.8 nM
